Assay results: patent US8679836B2, “Methods of monitoring angiogenesis and metastasis in three dimensional co-cultures” (The United States of America, as represented by the …, priority 2007, dated 2014)
Read-outs that look alike come from different tables or passages of the source.

Assays:
PAE-GFP cells = experiment: Tubule formation assay on gelled BME, quantified with AngioApplication; format: cell-based, porcine; conditions: for EC50: Sus scrofa
Description: This example describes exemplary procedures for measuring the ability of the cell lines disclosed herein for tubule formation potential. 50 μl of low growth factor BME (Basement Membrane Extract, Trevigen, Inc. Gaithersburg, Md.) were laid down in each well and the plate was incubated for 1 hour at 37° C. The extract gels at 37° C. to form a reconstituted basement membrane and stimulates tubule formation by endothelial cells. The major components of the Basement Membrane Extract (BME) include laminin I, collagen IV, entactin, and heparin sulfate proteoglycan. 15,000 PAE-GFP cells were then added on top of the gelled BME and images were acquired with a fluorescent microscope after 3.5-24 hours. Cells were imaged on the BD Pathway™ Bioimager. […] Tubule formation assays were quantified using the Java based software AngioApplication™. AngioApplication™ has been specifically designed for the quantification of tubule formation assays. Several morphological parameters were assessed in images including the total area of the tubules, the total number of tubules, number of nodes, number of branch points, the number of tubes per node, or node.
As shown in FIG. 7A increasing concentrations of suramin causes disruption of tubule formation. AngioApplication™ was used to automatically assess tube length at several concentrations of suramin. Traditionally quantification of tube formation was based in the measurement of complete (long) tubes in the image. AngioApplication™ determined that as the concentration of suramin was increased the number of long tubules was diminished. […] In addition, because AngioApplication™ calculates the length for all tubes in the image (including incomplete tubes) a more refined analysis was performed using the measurement of short (or incomplete) tubules. […] This is in agreement with the fact that Suramin interferes with the mechanism of tube formation.

PAE cells = experiment: 3D co-culture of fluorescent PAE cells with leiomyosarcoma HTB-88 xenograft biopsy tissue; format: cell-based, porcine; conditions: 100 μg/ml, six days, FIG. 30
Description: Xenografts were prepared as in Example 7. Tumor xenografts were dissected when they reached about 1 cm in diameter and put into the sterile 15 ml or 50 ml tubes (Corning) with RPMI1640 medium supplemented with 10% FBS, 1% Glucose (Sigma), and 4× Antibiotic-Antimycotic (Invitrogen). The tumor xenografts were placed on wet ice and shipped to the lab within 2-3 hours. The Xenografts were rinsed 3 times in 70% ethanol and then 3 times in PBS. In the hood, the core biopsy was performed by biopsy punch (Miltex, Inc.) and was washed out into a 100 cm cell culture dish (Corning) by using a pipette to blow the top opening of the biopsy applicator. Using a disposable scalpel (Feather Safety Razor, Co. Japan), the core biopsy was dissected in three stages. 1 mm of both ends of the core biopsy was carefully cut off; they were transferred into a new 100 cm cell culture dish labeled P (peripheral section). Next, 1 mm of both ends of the remaining core biopsy were removed and discarded. […]
3D co-cultures were prepared as follows: 50 μl 1% SEAKEM™ LE agarose were added to individual wells of a 96-well plate and allowed to solidify at room temperature for 20 minutes. […] Cultures were incubated at 37° C. for 5-20 days and endothelial vessel network formation was observed by confocal laser scanning fluorescence microscopy. […]

HMEC-1 = experiment: 3D co-culture of HMEC-1 with leiomyosarcoma HTB-88 core biopsy xenograft, panel of angiogenesis inhibitors; format: cell-based, human; conditions: 100 μg/ml, five-day incubation, versus Thalidomide, Sunitinib, Fumagillin
Description: Peripheral ringlet xenograft tissue/HMEC-1 co-cultures were incubated with Avastin®, Thalidomide, Sunitinib or Fumagilin.
3D co-cultures were prepared as follows: 50 μl 1% SEAKEM™ LE agarose were added to individual wells of a 96-well plate and allowed to solidify at room temperature for 20 minutes. 30 μl GELTREX® gel matrix (Invitrogen) were combined with PAE, LEC or HMEC-1 cells at a cell density of 560,000 cells/ml and added to each well of the plate (atop the solidified agarose). Plates were maintained on wet ice (4° C.) to prevent solidification of the gel matrix/cell mixture (the second layer). A single tumor cell spheroid colony or single ringlet of xenograft core biopsy was added to the center of the well and the matrix gel was solidified at 37° C. On top of the tumor/endothelial cell gel layer, 80 μl EBM-2+1% FBS were added to a final concentration of EMB-2+0.5% FBS in relation to the total volume of the culture. Cultures were incubated at 37° C. for 5-20 days and endothelial vessel network formation was observed by confocal laser scanning fluorescence microscopy. […]
Identifying the most efficacious therapy for a particular patient is a crucial goal for successful cancer treatment. […] Several FDA approved anti-angiogenic compounds were assessed in this capacity, including Avastin®, Thalidomide, and Sunitinib as well as the non-FDA approved drug Fumagillin.

| Compound | effect on tubule formation (PAE-GFP cells; PAE green cells, 0 to 26 μM) | EC50 (PAE-GFP cells; read-out: EC50, number of long tubules) | EC50 (PAE-GFP cells; read-out: EC50, number of short (incomplete) tubules) | EC50 (PAE-GFP cells; read-out: EC50 calculated, tubule formation) | effect on PAE proliferation (PAE cells) | effect on tubule formation (PAE cells) | inhibition of proliferation, compared with the other inhibitors (HMEC-1) | inhibition of tubule formation, compared with the other inhibitors (HMEC-1) |
| --- | --- | --- | --- | --- | --- | --- | --- | --- |
| Cc1ccc(C(=O)Nc2ccc(S(=O)(=O)O)c3cc(S(=O)(=O)O)cc(S(=O)(=O)O)c23)cc1NC(=O)c1cccc(NC(=O)Nc2cccc(C(=O)Nc3cc(C(=O)Nc4ccc(S(=O)(=O)O)c5cc(S(=O)(=O)O)cc(S(=O)(=O)O)c45)ccc3C)c2)c1 [suramin] | inhibited tubule formation | ~26 µM | ~26 µM | ~26 µM | – | – | – | – |
| Avastin®: monoclonal antibody directed against an isoform of VEGF, FDA-approved angiogenesis inhibitor | – | – | – | – | inhibited | inhibited | greatest inhibition | greatest inhibition |
